Laboratory results: patent publication US11535643B2, “Macrolides with modified desosamine sugars and uses thereof” (President and Fellows of Harvard College, priority 2015, dated 2022)
Values after ≈ are worked out from the molar mass of the structure shown. Read-outs that look alike come from different tables or passages of the source.

Tests used:
Format in all cases: cell-based
E. faecalis = assay: Broth dilution MIC determination (CLSI) against E. faecalis strains; details: for MIC: Enterococcus faecalis
How it was run: (§1)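 MICs were determined by CLSI standard broth dilution against several strains per species, including multidrug-resistant and macrolide-resistant strains. Azithromycin and solithromycin served as control compounds.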

E. coli = assay: Broth dilution MIC determination (CLSI) against E. coli strains; details: for MIC: Escherichia coli
How it was run: as §1

A. baumannii = assay: Broth dilution MIC determination (CLSI) against A. baumannii strains; details: for MIC: Acinetobacter baumannii
How it was run: as §1

K. pneumoniae = assay: Broth dilution MIC determination (CLSI) against K. pneumoniae strains; details: for MIC: Klebsiella pneumoniae
How it was run: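 Azithromycin and solithromycin served as controls; MICs were obtained by standard CLSI broth dilution on a strain panel including multidrug-resistant and macrolide-resistant isolates.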

S. pyogenes = assay: Broth dilution MIC determination (CLSI) against S. pyogenes strains; details: for MIC: Streptococcus pyogenes
How it was run: as §1

P. aeruginosa = assay: Broth dilution MIC determination (CLSI) against P. aeruginosa strains; details: for MIC: Pseudomonas aeruginosa
How it was run: as §1

S. pneumoniae = assay: Broth dilution MIC determination (CLSI) against S. pneumoniae strains; details: for MIC: Streptococcus pneumoniae
How it was run: as §1

S. aureus = assay: Broth dilution MIC determination (CLSI) against S. aureus strains; details: for MIC: Staphylococcus aureus
How it was run: as §1

H. influenzae = assay: Broth dilution MIC determination (CLSI) against H. influenzae strains; details: for MIC: Haemophilus influenzae
How it was run: as §1

[1] = ATCC29212, ATCC29212, read-out: MIC E. faecalis ATCC29212
[2] = Vancomycin-resistant, read-out: MIC E. faecalis Vancomycin-resistant
[3] = ATCC25922, ATCC25922, read-out: MIC E. coli ATCC25922
[4] = read-out: MIC E. coli NDM-1, NDM-1
[5] = ATCC19606, ATCC19606, read-out: MIC A. baumannii ATCC19606
[6] = imipenem-resistant, read-out: MIC A. baumannii imipenem-resistant
[7] = ATCC10031, ATCC10031, read-out: MIC K. pneumoniae ATCC10031
[8] = KPC-2, read-out: MIC K. pneumoniae KPC-2
[9] = ATCC19615, ATCC19615, read-out: MIC S. pyogenes ATCC19615
[10] = macrolide-resistant, read-out: MIC S. pyogenes macrolide-resistant
[11] = ATCC27853, read-out: MIC P. aeruginosa ATCC27853
[12] = ATCC49619, ATCC49619, read-out: MIC S. pneumoniae ATCC49619
[13] = erm B + mef A genotype, read-out: MIC S. pneumoniae erm B + mef A genotype
[14] = erm B + tet(M, O) genotype, read-out: MIC S. pneumoniae erm B + tet(M, O) genotype
[15] = read-out: MIC S. pneumoniae mef A genotype, mef A genotype
[16] = read-out: MIC S. pneumoniae mef A genotype, mef A genotype, first of two such columns (c3)
[17] = ATCC29213, ATCC29213, read-out: MIC S. aureus ATCC29213
[18] = MRSA / USA100, MRSA: USA100, read-out: MIC S. aureus MRSA: USA100
[19] = MRSA / USA300, MRSA: USA300, read-out: MIC S. aureus MRSA: USA300
[20] = USA600, USA600, GISA, read-out: MIC S. aureus USA600, GISA
[21] = read-out: MIC S. aureus erm A genotype
[22] = ATCC49247, ATCC49247, read-out: MIC H. influenzae ATCC49247
[23] = erythro > 4, azithro 1, read-out: MIC H. influenzae erythro > 4, azithro 1
[24] = read-out: MIC E. coli CTX-M-14, CTX-M-14
[25] = read-out: MIC E. coli TEM-1, TEM-1
[26] = IMP-4, read-out: MIC A. baumannii IMP-4
[27] = chromosomal class C, read-out: MIC A. baumannii chromosomal class C
[28] = SHV-12, read-out: MIC K. pneumoniae SHV-12
[29] = TEM-10, read-out: MIC K. pneumoniae TEM-10
[30] = read-out: MIC P. aeruginosa HPA101-1477

For `CC[C@H]1OC(=O)[C@H](C)C(=O)[C@H](C)[C@@H](O[C@@H]2OC(CNC(=N)N)CC(N(C)C)C2O)[C@](C)(OC)C[C@@H](C)CN[C@H](C)[C@H]2N(CCCCn3cc(-c4cccc(N)c4)nn3)C(=O)O[C@]12C` (stereo partly drawn) [FSM-21843], the MIC (E. faecalis; [1]) was > 32 µg/mL, the MIC (E. faecalis; [2]) was > 32 µg/mL and the MIC (E. coli; [3]) was > 32 µg/mL. For the same molecule, the MIC (E. coli; [4]) was > 32 µg/mL, the MIC (A. baumannii; [5]) was > 32 µg/mL and the MIC (A. baumannii; [6]) was > 32 µg/mL. For the same molecule, the MIC (K. pneumoniae; [7]) was 32 µg/mL (≈ 36.2 µM), the MIC (K. pneumoniae; [8]) was > 32 µg/mL and the MIC (S. pyogenes; [9]) was 2 µg/mL (≈ 2.26 µM). The MIC (S. pyogenes; [10]) was 8 µg/mL (≈ 9.04 µM), the MIC (P. aeruginosa; [11]) was > 32 µg/mL and the MIC (S. pneumoniae; [12]) was 0.5 µg/mL (≈ 0.565 µM). The MIC (S. pneumoniae; [13]) was 32 µg/mL, the MIC (S. pneumoniae; [14]) was 0.25 µg/mL and the MIC (S. pneumoniae; [15]) was 8 µg/mL (≈ 9.04 µM). For the same molecule, the MIC (S. pneumoniae; [16]) was 4 µg/mL (≈ 4.52 µM), the MIC (S. aureus; [17]) was > 32 µg/mL and the MIC (S. aureus; [18]) was > 32 µg/mL. The MIC (S. aureus; [19]) was > 32 µg/mL, the MIC (S. aureus; [20]) was > 32 µg/mL and the MIC (S. aureus; [21]) was > 32 µg/mL. For the same molecule, the MIC (H. influenzae; [22]) was 32 µg/mL (≈ 36.2 µM) and the MIC (H. influenzae; [23]) was 32 µg/mL (≈ 36.2 µM).

For `CC[C@H]1OC(=O)[C@H](C)C(=O)[C@H](C)[C@@H](O[C@@H]2OC(CN)CC(N(C)C)C2O)[C@](C)(OC)C[C@@H](C)CN[C@H](C)[C@H]2N(CCCCn3cc(-c4cccc(N)c4)nn3)C(=O)O[C@]12C` (stereo partly drawn) [FSM-21700], the MIC (E. faecalis; [1]) was 8 µg/mL (≈ 9.49 µM), the MIC (E. faecalis; [2]) was > 32 µg/mL and the MIC (E. coli; [3]) was 32 µg/mL (≈ 38 µM). For the same molecule, the MIC (E. coli; [24]) was > 32 µg/mL, the MIC (E. coli; [4]) was 16 µg/mL (≈ 19 µM) and the MIC (E. coli; [25]) was 8 µg/mL (≈ 9.49 µM). For the same molecule, the MIC (A. baumannii; [5]) was > 32 µg/mL, the MIC (A. baumannii; [26]) was > 32 µg/mL and the MIC (A. baumannii; [27]) was > 32 µg/mL. The MIC (A. baumannii; [6]) was > 32 µg/mL, the MIC (K. pneumoniae; [7]) was 4 µg/mL (≈ 4.74 µM) and the MIC (K. pneumoniae; [8]) was > 32 µg/mL. The MIC (K. pneumoniae; [28]) was > 32 µg/mL, the MIC (K. pneumoniae; [29]) was 32 µg/mL (≈ 38 µM) and the MIC (S. pyogenes; [9]) was 0.0625 µg/mL (≈ 0.0741 µM). The MIC (S. pyogenes; [10]) was 2 µg/mL (≈ 2.37 µM), the MIC (P. aeruginosa; [11]) was > 32 µg/mL and the MIC (P. aeruginosa; [30]) was > 32 µg/mL. For the same molecule, the MIC (S. pneumoniae; [12]) was ≤ 0.0312 µg/mL, the MIC (S. pneumoniae; [13]) was 16 µg/mL and the MIC (S. pneumoniae; [14]) was 0.0625 µg/mL. It also gave an MIC (S. pneumoniae; [15]) of 2 µg/mL (≈ 2.37 µM), an MIC (S. pneumoniae; [16]) of 0.5 µg/mL (≈ 0.593 µM) and an MIC (S. aureus; [17]) of 8 µg/mL (≈ 9.49 µM). For the same molecule, the MIC (S. aureus; [18]) was > 32 µg/mL, the MIC (S. aureus; [19]) was > 32 µg/mL and the MIC (S. aureus; [20]) was > 32 µg/mL. It also gave an MIC (S. aureus; [21]) of 32 µg/mL (≈ 38 µM), an MIC (H. influenzae; [22]) of 32 µg/mL (≈ 38 µM) and an MIC (H. influenzae; [23]) of 16 µg/mL (≈ 19 µM).

`CC[C@H]1OC(=O)[C@H](C)C(=O)[C@H](C)[C@@H](O[C@@H]2OC(Cn3cc(-c4cccc(N)n4)nn3)CC(N(C)C)C2O)[C@](C)(OC)C[C@@H](C)CN[C@H](C)[C@H]2N(CCCCn3cc(-c4cccc(N)c4)nn3)C(=O)O[C@]12C` (stereo partly drawn) [FSM-22124] was tested, and the MIC (E. faecalis; [1]) was 0.25 µg/mL (≈ 0.253 µM), the MIC (E. faecalis; [2]) was > 32 µg/mL and the MIC (E. coli; [3]) was 16 µg/mL (≈ 16.2 µM). For the same molecule, the MIC (E. coli; [24]) was > 32 µg/mL, the MIC (E. coli; [4]) was > 32 µg/mL and the MIC (E. coli; [25]) was 16 µg/mL (≈ 16.2 µM). The MIC (A. baumannii; [5]) was 16 µg/mL (≈ 16.2 µM), the MIC (A. baumannii; [26]) was > 32 µg/mL and the MIC (A. baumannii; [27]) was 16 µg/mL (≈ 16.2 µM). For the same molecule, the MIC (A. baumannii; [6]) was 16 µg/mL (≈ 16.2 µM), the MIC (K. pneumoniae; [7]) was 4 µg/mL (≈ 4.05 µM) and the MIC (K. pneumoniae; [8]) was 32 µg/mL (≈ 32.4 µM). The MIC (K. pneumoniae; [28]) was > 32 µg/mL, the MIC (K. pneumoniae; [29]) was 8 µg/mL (≈ 8.1 µM) and the MIC (S. pyogenes; [9]) was ≤ 0.0312 µg/mL. The MIC (S. pyogenes; [10]) was 2 µg/mL (≈ 2.03 µM), the MIC (P. aeruginosa; [11]) was > 32 µg/mL and the MIC (P. aeruginosa; [30]) was > 32 µg/mL. For the same molecule, the MIC (S. pneumoniae; [12]) was ≤ 0.0312 µg/mL, the MIC (S. pneumoniae; [13]) was 0.5 µg/mL and the MIC (S. pneumoniae; [14]) was ≤ 0.0312 µg/mL. For the same molecule, the MIC (S. aureus; [17]) was 4 µg/mL (≈ 4.05 µM), the MIC (S. aureus; [18]) was > 32 µg/mL and the MIC (S. aureus; [19]) was > 32 µg/mL. For the same molecule, the MIC (S. aureus; [20]) was > 32 µg/mL, the MIC (S. aureus; [21]) was > 32 µg/mL and the MIC (H. influenzae; [22]) was 2 µg/mL (≈ 2.03 µM). The MIC (H. influenzae; [23]) was 1 µg/mL (≈ 1.01 µM).

In the case of `CCC1OC(=O)C(C)(F)C(=O)C(C)C(OC2OC(COC(=O)c3ccccc3)C(O)C(N(C)C)C2O)C(C)(OC)CC(C)CNC(C)C2N(CCCCn3cc(-c4cccc(N)c4)nn3)C(=O)OC12C` (stereo not drawn) [FSM-21798], the “MIC E. faecalis ATCC29212” value (E. faecalis; ATCC29212) is reported as 32 µg/mL (≈ 32.6 µM), the “MIC E. faecalis Vancomycin-resistant” value (E. faecalis; Vancomycin-resistant) is reported as >32 µg/mL and the “MIC E. coli ATCC25922” value (E. coli; ATCC25922) is reported as >32 µg/mL. The “MIC E. coli NDM-1” value (E. coli; NDM-1) was >32 µg/mL, the “MIC A. baumannii ATCC19606” value (A. baumannii; ATCC19606) was >32 µg/mL and the “MIC A. baumannii imipenem-resistant” value (A. baumannii; imipenem-resistant) was >32 µg/mL. The “MIC K. pneumoniae ATCC10031” value (K. pneumoniae; ATCC10031) was >32 µg/mL, the “MIC K. pneumoniae KPC-2” value (K. pneumoniae; KPC-2) was >32 µg/mL and the “MIC S. pyogenes ATCC19615” value (S. pyogenes; ATCC19615) was 8 µg/mL (≈ 8.15 µM). The “MIC S. pyogenes macrolide-resistant” value (S. pyogenes; macrolide-resistant) was 32 µg/mL (≈ 32.6 µM), the “MIC P. aeruginosa ATCC27853” value (P. aeruginosa; ATCC27853) was >32 µg/mL and the “MIC S. pneumoniae ATCC49619” value (S. pneumoniae; ATCC49619) was >32 µg/mL. For the same molecule, the “MIC S. pneumoniae erm B + mef A genotype” value (S. pneumoniae; erm B + mef A genotype) was >32 µg/mL, the “MIC S. pneumoniae erm B + tet(M, O) genotype” value (S. pneumoniae; erm B + tet(M, O) genotype) was >32 µg/mL and the “MIC S. aureus ATCC29213” value (S. aureus; ATCC29213) was >32 µg/mL. The “MIC S. aureus MRSA: USA100” value (S. aureus; MRSA: USA100) was >32 µg/mL, the “MIC S. aureus MRSA: USA300” value (S. aureus; MRSA: USA300) was >32 µg/mL and the “MIC S. aureus USA600, GISA” value (S. aureus; USA600, GISA) was >32 µg/mL. The “MIC S. aureus erm A genotype” value (S. aureus; erm A genotype) was >32 µg/mL, the “MIC H. influenzae ATCC49247” value (H. influenzae; ATCC49247) was >32 µg/mL and the “MIC H. influenzae erythro > 4, azithro 1” value (H. influenzae; erythro > 4, azithro 1) was >32 µg/mL.
